According to US20080004290A1, “Anti-Cancer Agents” (THE UNIVERSITY OF QUEENSLAND, priority 2003, published 2008):
Read-outs that look alike come from different tables or passages of the source.

Experiments:
Type in all cases: cell-based, human
HOP62 cells = experiment: Cell survival assay (SRB); conditions: HOP62 (lung); read-out: Cytoselectivities (nM) HOP62
Protocol: (§1) Cell Lines and Culture Medium. All cell lines used in this study have been described previously (Parsons et al., 1986; Todaro et al., 1980; Glenn et al., 2004). All cell lines were cultured in 10% heat-inactivated foetal calf serum (CSL, Australia) in RPMI 1640 medium supplemented with 100 U/mL penicillin, 100 μg/mL streptomycin, and 3 mM HEPES at 5% CO2, 99% humidity at 37° C. Primary human fibroblasts were obtained from neonatal foreskins and cultured in the above medium. Routine mycoplasma tests were performed using Hoechst stain^i and were always negative.
(§2) Cell Survival Assay. Cells were plated into 96-well microtitre plates at 5×10^3 cells/well, and allowed to adhere overnight. Test compounds were added to culture medium at the indicated concentrations, and plates incubated in the above conditions for 24 hours. Following this incubation period, compounds and media were removed, and replaced with fresh culture medium. Cells were then grown for a further 72 hours before assay using sulforhodamine B (SRB; Sigma, St. Louis, Mo.) as previously described. Briefly, the culture medium was removed from the 96-well microtitre plates and the plates washed twice with phosphate buffered saline (PBS), before the cells were fixed with methylated spirits for 15 minutes. The plates were then rinsed with tap water and the fixed cells stained with 50 μL/well of SRB solution (0.4% sulforhodamine B (w/v) in 1% (v/v) acetic acid) over a period of 1 hour. The SRB solution was then removed from the wells and the plates rapidly washed two times with 1% (v/v) acetic acid. Protein bound dye was then solubilised with the addition of 100 μL of 10 mM unbuffered Tris, and incubated for 15 min at 25° C. Plates were then read at 564 nm on a VERSA max tunable microplate reader (Molecular Devices, Sunnyvale, Calif.).

HT29 cells = experiment: Cell survival assay (SRB); conditions: HT29 (colon); read-out: Cytoselectivities (nM) HT29
Protocol: as §1, §2

T-47D cells = experiment: Cell survival assay (SRB); conditions: T-47D; read-out: Cytoselectivities (nM) T-47D
Protocol: as §1, §2

A549 cells = experiment: Cell survival assay (SRB); conditions: A549 (lung); read-out: Cytoselectivities (nM) A549
Protocol: as §1, §2

SK-MEL-5 cells = experiment: Cell survival assay (SRB); conditions: SK-MEL-5; read-out: Cytoselectivities (nM) SK-MEL-5
Protocol: as §1, §2

PC-3 cells = experiment: Cell survival assay (SRB); conditions: PC-3; read-out: Cytoselectivities (nM) PC-3
Protocol: as §1, §2

H520 cells = experiment: Cell survival assay (SRB); conditions: H520; read-out: Cytoselectivities (nM) H520
Protocol: as §1, §2

MM96L melanoma cells = experiment: Cell survival assay (clonogenic survival, SRB)
How it was run: (§3)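 Cells (5×10^3/well, RPMI 1640 with 10% FCS) treated 24 h with compound at 0.01-10 μg/mL, then washed and grown 72 h drug-free at 37 °C, 5% CO2. Survival read by SRB staining after methylated-spirit fixation, absorbance 564 nm.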

[1] = test system: MCF-7 breast cancer cells; experiment: Cell survival assay (SRB); conditions: MCF-7 (breast); read-out: Cytoselectivities (nM) MCF-7
Protocol: as §1, §2
(§4) For comparison their results are also shown for MM96L and NFF cell lines.

JAM ovarian cancer cells = experiment: Cell survival assay (SRB); conditions: JAM; read-out: Cytoselectivities (nM) JAM
Protocol: as §1, §2, §4

SkMel28 melanoma cells = experiment: Cell survival assay (SRB); conditions: SK-MEL-28 (melanoma); read-out: Cytoselectivities (nM) SK-MEL-28
Protocol: as §1, §2, §4

[2] = test system: CI-80-13S ovarian cancer cells; experiment: Cell survival assay (SRB); conditions: CI80-13S; read-out: Cytoselectivities (nM) CI80-13S
Protocol: as §1, §2, §4

[3] = test system: DU145 prostate cancer cells; experiment: Cell survival assay (SRB); conditions: DU145 (prostate); read-out: Cytoselectivities (nM) DU145
Protocol: as §1, §2, §4

[4] = test system: NFF, neonatal foreskin fibroblasts; experiment: Cell survival assay (clonogenic survival, SRB), normal cells; conditions: SRB
How it was run: as §3

[5] = MM96L, Table 12, read-out: Cytoselectivities (nM) MM96L

Compound: CN(C)c1ccc(C(=O)N[C@H](CCCCCC(=O)NO)C(=O)Nc2cccc3cccnc23)cc1 [126 R]
- IC50 (HOP62 cells): 147 nM
- IC50 (HT29 cells): 199 nM
- IC50 (T-47D cells): 63 nM
- IC50 (A549 cells): 191 nM
- IC50 (SK-MEL-5 cells): 44 nM
- IC50 (PC-3 cells): 387 nM
- IC50 (H520 cells): 188 nM
- IC50 (MM96L melanoma cells; [5]): 38 nM
- IC50 [1]: 40 nM
- IC50 (JAM ovarian cancer cells): 251 nM
- IC50 (SkMel28 melanoma cells): 57 nM
- IC50 [2]: 43 nM
- IC50 [3]: 52 nM

Compound: O=C(CCCSC[C@H](NC(=O)c1ccccc1[N+](=O)[O-])C(=O)NCc1ccccc1)NO [Example 32]
- IC50 (MM96L melanoma cells; Table 5, 24 hours with compound, further growth, SRB, read-out: IC50 MM96L): 10600 ± 100 nM
- Selectivity (MM96L melanoma cells; Table 5, Selectivity Index = IC50 (NFF)/IC50 (MM96L)): >10
- IC50 ([4]; Table 5, 24 hours with compound, further growth, read-out: IC50 NFF): > 100 µM

Compound: CN(C)c1ccc(NC(=O)[C@H](CCCCCC(=O)NO)NC(=O)/C=C/c2ccccc2)cc1 [Example 150]
- IC50 (MM96L melanoma cells; Homo sapiens, MM96L, MM96L melanoma, 24 h with compound, further 72 h growth, SRB, read-out: IC50 (uM) MM96L): 165 nM
- SI (Selectivity Index = IC50 (NFF)/IC50 (MM96L)) (MM96L melanoma cells; NFF vs MM96L): 1.5
- IC50 ([4]; Homo sapiens, Fibroblast, NFF normal fibroblasts, 24 h with compound, further 72 h growth, read-out: IC50 (uM) NFF): 0.24 µM

Compound: O=C(CCCCC[C@@H](NC(=O)OCc1ccccc1)C(=O)Nc1cccc2cccnc12)NO [148 R]
- IC50 (HOP62 cells): 65 nM
- IC50 (HT29 cells): 139 nM
- IC50 (T-47D cells): 51 nM
- IC50 (A549 cells): 104 nM
- IC50 (SK-MEL-5 cells): 20 nM
- IC50 (PC-3 cells): 269 nM
- IC50 (H520 cells): 46 nM
- IC50 (MM96L melanoma cells; [5]): 22 nM
- IC50 [1]: 29 nM
- IC50 (JAM ovarian cancer cells): 65 nM
- IC50 (SkMel28 melanoma cells): 43 nM
- IC50 [2]: 29 nM
- IC50 [3]: 39 nM
